Measurements from patent US11434242B2, “Dopamine-b-hydroxylase inhibitors” (BIAL-PORTELA & Cª, S.A., priority 2017, dated 2022).
Marks after values point to notes of the source that are not given here.

Molecular target: T1, Dopamine beta hydroxylase (Homo sapiens, UniProt P09172)
T1 construct: 125 μl of plasma; tissue Instituto Português do Sangue Transplantação; host or cells: human plasma from healthy donors
T1 sequence (P09172 40-617 limits assumed): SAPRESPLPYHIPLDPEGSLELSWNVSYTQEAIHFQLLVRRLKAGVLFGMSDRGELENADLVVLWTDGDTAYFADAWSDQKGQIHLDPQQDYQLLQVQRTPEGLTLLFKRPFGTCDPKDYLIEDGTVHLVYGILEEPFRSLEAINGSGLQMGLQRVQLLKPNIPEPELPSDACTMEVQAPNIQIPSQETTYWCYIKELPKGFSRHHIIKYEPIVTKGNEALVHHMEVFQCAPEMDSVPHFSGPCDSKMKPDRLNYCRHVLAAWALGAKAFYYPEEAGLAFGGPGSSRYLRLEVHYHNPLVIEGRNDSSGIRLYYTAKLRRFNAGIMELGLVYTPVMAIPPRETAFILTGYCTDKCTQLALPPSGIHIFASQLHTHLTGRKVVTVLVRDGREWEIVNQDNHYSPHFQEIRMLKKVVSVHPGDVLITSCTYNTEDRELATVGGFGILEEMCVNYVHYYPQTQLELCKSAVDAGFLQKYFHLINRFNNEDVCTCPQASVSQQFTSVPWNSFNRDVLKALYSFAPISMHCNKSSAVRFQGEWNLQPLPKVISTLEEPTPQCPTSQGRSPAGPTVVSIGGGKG
Experiment: Dopamine beta hydroxylase activity in human plasma
Assay type: biochemical
Method in brief: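 Octopamine production from tyramine over 45 min at 37° C, measured photometrically at 330 nm after SCX extraction and periodate oxidation against an octopamine standard curve, indicates plasma DβH activity. Compounds tested at final 10, 100 and 1000 nM in human plasma, pH 5.0 cofactor buffer, 10 min preincubation; results as % of control.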

SMILES	Plasma (0.01 μM), activity in % of control (inhibitor 0.01 μM)	Plasma (0.1 μM), activity in % of control (inhibitor 0.1 μM)	Plasma (0.01 μM), activity in % of control, re-test (asterisked) (inhibitor 0.01 μM, re-tested under the same experimental conditions, asterisked data believed to be correct)	Plasma (0.1 μM), activity in % of control, re-test (asterisked) (inhibitor 0.1 μM, re-tested under the same experimental conditions, asterisked data believed to be correct)
CN(CCO)CCc1[nH]c(=S)n2c1C[C@H](c1c(F)ccc(Br)c1F)C2 [Example 183, (R)-6-(3-bromo-2,6-difluorophenyl)-1-(2-((2-hydroxyethyl)(methyl)amino)ethyl)-2,5,6,7-tetrahydro-3H-pyrrolo[1,2-c]imidazole-3-thione]	92.2 % of control	79.8 % of control	–	–
C[C@@H](NCCc1[nH]c(=S)n2c1C[C@H](c1c(F)ccc(Br)c1F)C2)C1CCCCC1 [Example 184, (R)-6-(3-bromo-2,6-difluorophenyl)-1-(2-(((R)-1-cyclohexylethyl)amino)ethyl)-2,5,6,7-tetrahydro-3H-pyrrolo[1,2-c]imidazole-3-thione]	89.2 % of control	43.7 % of control	–	–
Cl.Fc1ccc(Br)cc1[C@]12C[C@H]1c1c(CCN3CCCC3)[nH]c(=S)n1C2 [Example 185, (5aS,6aR)-5a-(5-bromo-2-fluorophenyl)-1-(2-(pyrrolidin-1-yl)ethyl)-5,5a,6,6a-tetrahydrocyclopropa[3,4]pyrrolo[1,2-c]imidazole-3(2H)-thione hydrochloride]	72.9 % of control	30.9 % of control	–	–
Cl.Fc1ccc(Br)cc1[C@]12C[C@H]1c1c(CCNCC3CC3)[nH]c(=S)n1C2 [Example 186, (5aS,6aR)-5a-(5-bromo-2-fluorophenyl)-1-(2-((cyclopropylmethyl)amino)ethyl)-5,5a,6,6a-tetrahydrocyclopropa[3,4]pyrrolo[1,2-c]imidazole-3(2H)-thione hydrochloride]	62.7 % of control	18.0 % of control	–	–
F.Fc1ccc(Br)cc1[C@]12C[C@H]1c1c(CCNC3CC3)[nH]c(=S)n1C2 [Example 187, (5aS,6aR)-5a-(5-bromo-2-fluorophenyl)-1-(2-(cyclopropylamino)ethyl)-5,5a,6,6a-tetrahydrocyclopropa[3,4]pyrrolo[1,2-c]imidazole-3(2H)-thione hydrofluoride]	72.6 % of control	21.6 % of control	–	–
F.Fc1ccc(Br)cc1[C@]12C[C@H]1c1c(CCNC3CCC3)[nH]c(=S)n1C2 [Example 188, (5aS,6aR)-5a-(5-bromo-2-fluorophenyl)-1-(2-(cyclobutylamino)ethyl)-5,5a,6,6a-tetrahydrocyclopropa[3,4]pyrrolo[1,2-c]imidazole-3(2H)-thione hydrofluoride]	60.9 % of control	15.4 % of control	–	–
F.Fc1ccc(Cl)cc1[C@]12C[C@H]1c1c(CCNCc3ccccc3)[nH]c(=S)n1C2 [Example 189, (5aS,6aR)-1-(2-(benzylamino)ethyl)-5a-(5-chloro-2-fluorophenyl)-5,5a,6,6a-tetrahydrocyclopropa[3,4]pyrrolo[1,2-c]imidazole-3(2H)-thione hydrofluoride]	87.4 % of control	23.2 % of control	–	–
CN(CCc1[nH]c(=S)n2c1[C@@H]1C[C@]1(c1cc(Br)ccc1F)C2)C1CCCC1.F [Example 190, (5aS,6aR)-5a-(5-bromo-2-fluorophenyl)-1-(2-(cyclopentyl(methyl)amino)ethyl)-5,5a,6,6a-tetrahydrocyclopropa[3,4]pyrrolo[1,2-c]imidazole-3(2H)-thione hydrofluoride]	68.6 % of control	19.9 % of control	–	–
F.Fc1ccc(Br)cc1[C@]12C[C@H]1c1c(CCNc3ccccn3)[nH]c(=S)n1C2 [Example 192, (5aS,6aR)-5a-(5-bromo-2-fluorophenyl)-1-(2-(pyridin-2-ylamino)ethyl)-5,5a,6,6a-tetrahydrocyclopropa[3,4]pyrrolo[1,2-c]imidazole-3(2H)-thione hydrofluoride]	73.4 % of control	12.1 % of control	–	–
CNCCc1[nH]c(=S)n2c1C[C@@H](c1c(F)ccc(Cl)c1F)C2.Cl [Example 193, (S)-6-(3-chloro-2,6-difluorophenyl)-1-(2-(methylamino)ethyl)-2,5,6,7-tetrahydro-3H-pyrrolo[1,2-c]imidazole-3-thione Hydrochloride]	86.0 % of control	46.3 % of control	–	–
F.Fc1ccc(Cl)cc1[C@]12C[C@H]1c1c(CCN3CCCCC3)[nH]c(=S)n1C2 [Example 194, (5aS,6aR)-5a-(5-chloro-2-fluorophenyl)-1-(2-(piperidin-1-yl)ethyl)-5,5a,6,6a-tetrahydrocyclopropa[3,4]pyrrolo[1,2-c]imidazole-3(2H)-thione Hydrofluoride]	82.9 % of control	62.4 % of control	–	–
Cl.Fc1ccc(Cl)c(F)c1[C@@H]1Cc2c(CCN3CCOCC3)[nH]c(=S)n2C1 [Example 196, (S)-6-(3-chloro-2,6-difluorophenyl)-1-(2-morpholinoethyl)-2,5,6,7-tetrahydro-3H-pyrrolo[1,2-c]imidazole-3-thione Hydrochloride]	102.2 % of control	68.6 % of control	–	–
Fc1ccc(Cl)cc1[C@]12C[C@H]1c1c(CCNc3cccnc3)[nH]c(=S)n1C2 [Example 197, (5aS,6aR)-5a-(5-chloro-2-fluorophenyl)-1-(2-(pyridin-3-ylamino)ethyl)-5,5a,6,6a-tetrahydrocyclopropa[3,4]pyrrolo[1,2-c]imidazole-3(2H)-thione]	75.9 % of control	29.4 % of control	–	–
Cl.Fc1cc(F)c(F)c([C@H]2Cc3c(CCN4CCCC4)[nH]c(=S)n3C2)c1F [Example 198, (R)-1-(2-(pyrrolidin-1-yl)ethyl)-6-(2,3,5,6-tetrafluorophenyl)-2,5,6,7-tetrahydro-3H-pyrrolo[1,2-c]imidazole-3-thione Hydrochloride]	52.2 % of control	11.1 % of control	84.5* % of control	99.1* % of control
CCOC(=O)C(Cc1[nH]c(=S)n2c1C[C@H](c1c(F)c(F)cc(F)c1F)C2)C(=O)OCC [Example 200, (R)-diethyl 2-((6-(2,3,5,6-tetrafluorophenyl)-3-thioxo-3,5,6,7-tetrahydro-2H-pyrrolo[1,2-c]imidazol-1-yl)methyl)malonate]	85.2 % of control	66.4 % of control	–	–
O=C(O)C(Cc1[nH]c(=S)n2c1C[C@H](c1c(F)c(F)cc(F)c1F)C2)C(=O)O [Example 201, (R)-2-((6-(2,3,5,6-tetrafluorophenyl)-3-thioxo-2,5,6,7-tetrahydro-3H-pyrrolo[1,2-c]imidazol-1-yl)methyl)malonic Acid]	62.4 % of control	13.3 % of control	–	–
O=C(O)CCc1[nH]c(=S)n2c1C[C@H](c1c(F)c(F)cc(F)c1F)C2 [Example 202, (R)-3-(6-(2,3,5,6-tetrafluorophenyl)-3-thioxo-2,5,6,7-tetrahydro-3H-pyrrolo[1,2-c]imidazol-1-yl)propanoic Acid]	67.7 % of control	22.7 % of control	–	–
